For data set [1], the system named is platelet phosphodiesterase. As to the kind of experiment: Inhibition of platelet phosphodiesterase activity (H3-cAMP hydrolysis). The class given is biochemical. The conditions noted are these: 5 minutes at 30° C, platelet preparations. On the procedure: The IC50 's for 2'-0-(4-benzoyl)benzoyl guanosine 3',5'cyclic monophosphate and 2'-0-(4-benzoyl)benzoyl cyclic adenosine monophosphate were 3 and 10 μM, repsectively. Enzyme activity was assayed by incubation of platelet preparations with H^3 -cAMP for 5 minutes at 30° C. Activity was quenched by boiling the assay tubes for 1 minute. Each sample was run in triplicate. Analysis of H^3 -cAMP was performed according to the procedure of W. J. Thompson, W. L. Terasaki, P. M. Epstein and S. J. Strada, "Assay of Cyclic Nucleotide Phosphodiesterase and Resolution of Multiple Molecular Forms of the Enzyme", Adv. in Cyclic Nucleotide Research, 10, 69-92 (1979).

Data set [2] can be described thus: Storage stability in DMSO. The format is physicochemical. The conditions noted are these: stored at -20° C. The source says: No preservative need be added.
Another data set concerns the target cAMP PDE. The experiment in a line: Inhibition of cAMP phosphodiesterase in rat bladder. The conditions noted are these: read-out: IC50, concentration required to cause 50% inhibition of the enzyme. The format is biochemical. On the procedure: (§1) 2'-0-(4-benzoyl)benzoyl guanosine 3',5' cyclic monophosphate was assayed as an inhibitor of the cGMP and cAMP phoosphodiesterases in rat bladder. The inhibition of the two PDEases were assayed as per J. N. Wells, C. E. Baird, Y. J. Wu and J. G. Hardman, Biochem. Biophys. Acta, 384, 430, (1975). Expressed as IC50 's, the concentration required to cause 50% inhibition of the enzynme were as follows: […]

For a further data set, the system named is intraocular pressure. As to the kind of experiment: Intraocular pressure in normal rabbits after topical administration. The class given is in vivo, rabbit. The source says:
Non-pigmented, normal (non-water-loaded) rabbits received topical administration to their eyes of 2'-0-(4)-benzoyl benzoyl guanosine 3',5'cyclic monophosphate as prepared according to Example 1.
The mean baseline IOP (intraocular pressure) for the rabbits was 17.5 mm Hg. It should be noted that the data presented in FIG. 1 and FIG. 2 are relative to time zero and normalized relative to the contralateral eye. The contralateral eye received a DMSO control lacking the inhibitor compound. It is believed that this is the most conservative way to represent the data.
Additionally, five rabbits were administered 2'-0-(4-benzoyl)benzoyl guanosine 3',5'cyclic monophosphate (and DMSO) in a sterile saline solution diluted 10- and 100-fold.
FIG. 1 depicts the results of increasing concentrations of 2'-0-(4-benzoyl)benzoyl guanosine 3',5' cyclic monophosphate on the intraocular pressure of normal rabbits. Pressures (±S.E.M) are relative to pressure at time zero and normalized with respect to that of the contralateral eye. Contralateral eyes received solutions containing (DMSO) vehicle without 2'-0-(4-benzoyl)benzoyl guanosine 3',5'cyclic monophosphate. […] Intraocular pressure was measured by applanation tonometry (using an Alcon Applanation Pneumotonograph) after topical application of proparacaine HCl […].

Another data set has as its system eye. As to the kind of experiment: Ocular tolerability in rabbits after topical administration. The format is in vivo, rabbit.
Data set [3] deals with Type III cGMP phosphodiesterase. The experiment in a line: Lineweaver-Burke analysis of cGMP hydrolysis by toad photoreceptor rod outer segment membranes. The format is biochemical. On the procedure:
FIG. 7 depicts a Lineweaver-Burke analysis of inhibitory effectiveness of 2'-0-(4-benzoyl)benzoyl guanosine 3',5'cyclic monophosphate versus 8-Br-cGMP. The data illustrated are cGMP hydrolysis velocities from toad photoreceptor rod outer segment membranes containing 20 nM Type III cGMP phosphodiesterase in the presence of 100 mM NaCl, 1 mM Tris-HCl, 1 MgCl2,20 μM p[NH]ppG (guanylylimididiphosphate), pH 7.4, and the indicated concentrations of substrate. Open squares indicate control velocities. […] Open circles and open triangles show the effect of 2 μM and 20uM 2'-0-(4-benzoyl)benzoyl guanosine 3',5'cyclic monophosphate respectively (Ki =0.3 μM).

The target in another data set is cGMP PDE. As to the kind of experiment: Inhibition of cGMP phosphodiesterase in rat bladder. To be noted: read-out: IC50, concentration required to cause 50% inhibition of the enzyme. The class given is biochemical. On the procedure:
as §1

A further data set is described as follows: Solubility in solvents. The class given is physicochemical. To be noted: dmso, organic solvent or mixture; in water, ethanol or methanol and DSMO; read-out: upper limit of solubility. On the procedure:
The inventive compound favors organic solvents; the upper limit of solubility in water, ethanol or methanol and DSMO is approximately 100 mM. Butanol is also a good solvent, but probably not a very good vehicle.

The target in data set [4] is T1, Rod Light-Activated PDEase (Bos taurus, UniProt P11541+P23439).
T1 sequence (P11541 1-859): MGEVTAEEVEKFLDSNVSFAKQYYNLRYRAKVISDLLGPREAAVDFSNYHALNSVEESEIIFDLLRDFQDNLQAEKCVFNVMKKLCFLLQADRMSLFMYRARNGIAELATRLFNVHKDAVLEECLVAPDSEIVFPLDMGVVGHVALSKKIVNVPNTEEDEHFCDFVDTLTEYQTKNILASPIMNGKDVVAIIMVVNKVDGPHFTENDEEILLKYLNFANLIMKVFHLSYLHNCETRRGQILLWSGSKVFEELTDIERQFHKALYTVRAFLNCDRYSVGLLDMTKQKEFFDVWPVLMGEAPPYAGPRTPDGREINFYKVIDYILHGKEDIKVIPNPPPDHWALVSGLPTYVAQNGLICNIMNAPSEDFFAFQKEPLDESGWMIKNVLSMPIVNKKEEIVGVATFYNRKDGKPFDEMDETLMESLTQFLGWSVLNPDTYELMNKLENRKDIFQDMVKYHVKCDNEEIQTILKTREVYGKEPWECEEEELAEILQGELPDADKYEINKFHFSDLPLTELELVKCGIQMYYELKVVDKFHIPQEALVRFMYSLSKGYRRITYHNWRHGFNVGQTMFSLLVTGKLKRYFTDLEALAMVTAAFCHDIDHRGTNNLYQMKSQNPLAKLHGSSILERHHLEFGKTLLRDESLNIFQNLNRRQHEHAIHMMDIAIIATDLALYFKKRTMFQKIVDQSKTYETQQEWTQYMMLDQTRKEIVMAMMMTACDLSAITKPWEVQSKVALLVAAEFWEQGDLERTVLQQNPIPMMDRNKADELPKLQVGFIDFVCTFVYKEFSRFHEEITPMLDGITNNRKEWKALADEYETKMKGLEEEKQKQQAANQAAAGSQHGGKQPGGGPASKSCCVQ
T1 sequence (P23439 1-853): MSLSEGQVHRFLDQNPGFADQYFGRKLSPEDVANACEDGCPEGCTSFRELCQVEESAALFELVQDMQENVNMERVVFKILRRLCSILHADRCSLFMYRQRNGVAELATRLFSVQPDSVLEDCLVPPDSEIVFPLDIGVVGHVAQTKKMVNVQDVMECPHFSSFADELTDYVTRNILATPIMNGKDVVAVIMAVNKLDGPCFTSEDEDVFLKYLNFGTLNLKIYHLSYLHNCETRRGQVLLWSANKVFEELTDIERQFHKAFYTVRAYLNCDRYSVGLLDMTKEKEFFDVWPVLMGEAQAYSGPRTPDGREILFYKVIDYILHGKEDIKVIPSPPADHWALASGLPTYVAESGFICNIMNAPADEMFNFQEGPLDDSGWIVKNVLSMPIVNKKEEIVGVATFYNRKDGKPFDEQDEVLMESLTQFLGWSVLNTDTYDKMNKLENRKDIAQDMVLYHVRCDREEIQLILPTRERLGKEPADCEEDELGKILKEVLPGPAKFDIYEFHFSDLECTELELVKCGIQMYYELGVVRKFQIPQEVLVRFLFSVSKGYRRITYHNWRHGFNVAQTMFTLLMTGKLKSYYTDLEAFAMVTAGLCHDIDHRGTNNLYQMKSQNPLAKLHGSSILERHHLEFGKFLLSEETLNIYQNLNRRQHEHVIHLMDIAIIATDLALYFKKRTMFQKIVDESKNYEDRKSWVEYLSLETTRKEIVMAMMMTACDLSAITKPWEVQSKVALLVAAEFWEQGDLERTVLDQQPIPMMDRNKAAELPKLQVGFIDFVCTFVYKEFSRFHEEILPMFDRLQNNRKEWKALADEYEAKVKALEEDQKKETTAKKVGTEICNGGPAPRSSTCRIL

[5] abbreviates: 20 nM enzyme, 100 mM NaCl, 20 μM p[NH]ppG, pH 7.4, Ki calculated from slope/Km ratios, read-out: Ki.
[6] abbreviates: footnote a: from Zimmerman et al 1985; read-out: Ki for Inhibition; cited from earlier work.
The mark [7] stands for this setting: footnote b: interpolated from Pannbacker et al 1972 and Chader et al 1974; read-out: Ki for Inhibition; cited from earlier work.

Here are results for 13 compounds from patent US5039797A, “2'-O-(4-benzoyl)benzoyl nucleoside cyclic monophosphate” (Yale University, priority 1989, dated 1991).

Like-named read-outs stand apart in the source and are kept apart here.

Compound `Nc1ncnc2c1ncn2[C@@H]1O[C@@H]2COP(=O)(O)O[C@H]2[C@H]1OC(=O)c1ccc(C(=O)c2ccccc2)cc1` [2'-0-(4-benzoyl) benzoyl-adenosine 3',5' cyclic monophosphate] yielded an IC50 in data set [1] of 10 µM.
Regarding `Nc1nc2c(ncn2[C@@H]2O[C@@H]3COP(=O)(O)O[C@H]3[C@H]2OC(=O)c2ccc(C(=O)c3ccccc3)cc2)c(=O)[nH]1` [2'-0-(4-benzoyl)benzoylguanosine 3',5'cyclic monophosphate], the stability in solution result in data set [2] is “does not degrade”. The results for the IC50 (in data set [1]; at cAMP PDE; on cGMP PDE) were 3 µM, 15.8 µM and 0.5 µM, respectively. For the same compound, the “effect on IOP” value with intraocular pressure (10-fold diluted material (approximately 3 mM), compared with 35 mM in DMSO) is “about the same effect on IOP”; in the data set with intraocular pressure (100-fold diluted compound (approximately 0.3 mM)) it was “essentially no effect”. For the same compound, the conjunctival hyperemia entry was “reduced” with eye (compound (and DMSO) diluted ten-fold with saline solution) and “slight conjunctival hyperemia” in the data set with eye (full concentration (in straight DMSO)). Also, the “change in pupil diameter” value with eye (either eye, any concentration, topical) is “No significant change in pupil diameter”. Further, the “lid erythema or ciliary injection” value in the data set on eye (topical) is on record as “no lid erythema or ciliary injection were observed”. Moreover, the inhibition constant Ki was 0.3 µM in data set [3] (setting [5]) and 0.3 µM in [3] (Table 1, rod light-activated PDEase, inventive compound, read-out: Ki for Inhibition). In the data set “Solubility in solvents”, the solubility is roughly 100 mM.
Turning to `Nc1nc2c(ncn2[C@H]2C[C@@H]3OP(=O)(O)OC[C@H]3O2)c(=O)[nH]1` [2'-Deoxy-cGMP], the Ki in data set [4] (setting [6]) was 76 µM.
Take `Nc1nc2c(ncn2[C@@H]2O[C@@H]3COP(O)(=S)O[C@H]3[C@H]2O)c(=O)[nH]1` (some centres unmarked) [(Rp)-cGMP [S]]: the Ki in data set [4] (setting [6]) was 90 µM.
Regarding `Nc1nc2c(ncn2[C@@H]2O[C@@H]3COP(O)(=S)O[C@H]3[C@H]2O)c(=O)[nH]1` (some centres unmarked) [(Sp)-cGMP [S]], the inhibition constant Ki in [4] (setting [6]) is 25 µM.
Regarding `Nc1nc(O)c2nc(Br)n([C@@H]3O[C@@H]4COP(=O)(O)O[C@H]4[C@H]3O)c2n1` [Example 8-Br-cGMP, 8-Br-3',5' cyclic guanosine monophosphate, reference compound], the Ki is 6 µM in data set [3] (setting [5]) and 48 µM in [4] (setting [6]).
For the compound `CC(C)Cn1c(=O)n(C)c(=O)c2[nH]cnc21` [Isobutylmethylxanthine], the Ki in [4] (read-out: Ki for Inhibition; footnote b: interpolated from Pannbacker et al 1972 and Chader et al 1974; cited from earlier work) is roughly 100 µM.
With `CCCC(=O)Nc1nc2c(ncn2[C@@H]2O[C@@H]3COP(=O)(O)O[C@H]3[C@H]2O)c(=O)[nH]1` [N^2 -monobutyryl-cGMP], in [4] (setting [6]), the Ki is 258 µM.
Consider `CCCC(=O)Nc1nc2c(ncn2[C@@H]2O[C@@H]3COP(=O)(O)O[C@H]3[C@H]2OC(=O)CCC)c(=O)[nH]1` [N^2,O^2,-dibutyryl-cGMP], for which the Ki in data set [4] (setting [6]) was 66 µM.
`CCCC(=O)O[C@@H]1[C@@H]2OP(=O)(O)OC[C@H]2O[C@H]1n1cnc2c(=O)[nH]c(N)nc21` [O^2,-monobutyryl-cGMP]: in data set [4] (setting [6]), the Ki is 18 µM.
Turning to `COc1ccc(Cc2nccc3cc(OC)c(OC)cc23)cc1OC` [Papaverine], the inhibition constant Ki in data set [4] (setting [7]) was roughly 50 µM.
For `Cn1c(=O)c2[nH]cnc2n(C)c1=O` [Theophyline], in data set [4] (setting [7]), the Ki was roughly 360 µM.
As to `Nc1nc2c(ncn2[C@@H]2O[C@@H]3COP(=O)(O)O[C@H]3[C@H]2O)c(=O)[nH]1` [cGMP, 3',5'cyclic guanosine monophosphate], the Km in data set [4] (substrate cGMP; from Zimmerman et al 1985; read-out: Km (printed in column Ki for Inhibition); cited from earlier work) was 0.04 mM.
